For data set [1] the following is noted: 4 days post administration; free doxorubicin 12.5, micelle 25, unimer 6.3 mg drug/kg body weight; Balb/C mice bearing C26 tumors.
Experimental: Animals dosed near the maximum tolerated amount of doxorubicin lose body weight, and weight loss 4 days post doxorubicin administration is used in this experiment as a gross indicator of toxicity. Balb/C mice bearing C26 colon carcinoma tumors were systemically administered PBS, free doxorubicin, micelle doxorubicin-ELP, or unimer doxorubicin-ELP at 0, 12.5, 25, and 6.3 mg drug/kg body weight respectively. […] Error bars indicate the standard deviation (n=5).
The toxicity of doxorubicin-ELP was estimated by body weight loss. Animals that were dosed near the maximum tolerated amount of free doxorubicin, micelle doxorubicin-ELP or unimer doxorubicin-ELP lost body weight, and the weight observed 4 days after the injection of the doxorubicin composition was taken as a gross indicator of toxicity. Balb/C mice bearing C26 colon carcinoma tumors were systemically administered either PBS as a control or free doxorubicin, micelle doxorubicin-ELP, or unimer doxorubicin-ELP at 12.5, 25, and 6.3 mg drug/kg body weight, respectively. […] Error bars indicate the standard deviation (n=5).
Data set [2] has as its system C26 colon carcinoma tumor. Put plainly: Survival of tumor-bearing mice, C26 colon carcinoma. It counts as in vivo, Balb/C mice. The settings on record: free doxorubicin 12.5, micelle 25 mg drug/kg body weight, sacrificed after >15% body weight loss, Kaplan Meier analysis. As to the method:
Eight days after subcutaneous implantation of C26 colon carcinoma tumor cells, Balb/C mice were randomized and treated. The mice were systemically administered either a PBS control or does of approximately equal toxicity of free doxorubicin at 12.5 mg drug/kg body weight or 25 mg drug/kg body weight micelle doxorubicin-ELP. Mice were sacrificed after losing >15% of their body weight due to tumor burden. The treatment groups were blinded during measurement.
The data shown in FIG. 13 were determined as follows: Eight days after subcutaneous implantation of C26 colon carcinoma tumor cells, Balb/C mice were randomized and treated. […] The mice were sacrificed after losing >15% of their body weight due to tumor burden. The treatment groups were blinded during measurement.

This is an account of results in patent publication US20190023743A1, “METHODS AND COMPOSITIONS FOR MODULATING DRUG-POLYMER ARCHITECTURE, PHARMACOKINETICS AND BIODISTRIBUTION” (priority 2007, published 2019).

In the case of `COc1cccc2c1C(=O)c1c(O)c3c(c(O)c1C2=O)C[C@@](O)(C(=O)CO)C[C@@H]3O[C@H]1C[C@H](N)[C@H](O)[C@H](C)O1` [free doxorubicin, doxorubicin], in data set [1], the “toxicity estimated by body weight loss” value is on record as “approximately equally toxic”. In addition, the survival time entry in data set [2] was “did not significantly effect survival time”; in data set [2] (listed as Free doxorubicin) it was “did not have any significant effect on survival”.
